Data as given in patent US10316038B2, “Pyrrolopyrimidine ITK inhibitors for treating inflammation and cancer” (ACLARIS THERAPEUTICS, INC., priority 2017, dated 2019).
Where two headings read alike, the source gives them in different places.

Assays:
[1] = target: T1, ITK (Homo sapiens, UniProt Q08881); test: ITK inhibitor binding potency (LanthaScreen competitive binding assay); conditions: TR-FRET competitive binding, 10 nM ITK, 50 nM kinase tracer-236; pre-incubation condition not given; read-out: ITK Inhibition IC50
T1 sequence (Q08881 1-620): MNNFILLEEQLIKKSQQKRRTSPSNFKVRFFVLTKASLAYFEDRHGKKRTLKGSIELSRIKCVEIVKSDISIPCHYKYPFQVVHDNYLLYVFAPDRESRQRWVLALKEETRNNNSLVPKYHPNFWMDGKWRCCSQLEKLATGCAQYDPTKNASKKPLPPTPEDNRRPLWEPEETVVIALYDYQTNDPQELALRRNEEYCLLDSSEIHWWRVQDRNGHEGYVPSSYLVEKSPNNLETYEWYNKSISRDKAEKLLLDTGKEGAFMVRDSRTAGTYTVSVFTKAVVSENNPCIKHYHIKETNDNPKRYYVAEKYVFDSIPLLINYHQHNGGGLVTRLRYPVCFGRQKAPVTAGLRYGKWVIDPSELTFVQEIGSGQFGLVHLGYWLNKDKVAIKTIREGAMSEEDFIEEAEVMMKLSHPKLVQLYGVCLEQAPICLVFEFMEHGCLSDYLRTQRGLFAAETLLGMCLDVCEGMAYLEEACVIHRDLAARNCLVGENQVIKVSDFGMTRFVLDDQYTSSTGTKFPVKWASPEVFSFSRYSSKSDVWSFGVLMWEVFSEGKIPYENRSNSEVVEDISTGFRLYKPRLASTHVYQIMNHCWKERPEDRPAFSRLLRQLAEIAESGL
How it was run: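 TR-FRET tracer displacement using 10 nM ITK, 2 nM Eu-anti-GST antibody, 50 nM kinase tracer-236 in 20 mM HEPES pH 7.5, 10 mM MgCl2, 0.01% BSA, 0.0005% Tween-20, 2% DMSO. Run with or without 2 h compound–ITK pre-incubation before tracer; 11-point dose-response 20 uM–0.34 nM, IC50 from 4-parameter fit of emission ratio.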

[2] = test system: ITK phosphorylation of its substrate, PLCγ1, at Y783; test: ITK target modulation assay (phospho-Y783 PLCγ1 immunoblot in Jurkat T cells); format: cell-based; conditions: 2 hours compound, CD3/CD28 Dynabeads stimulation 100 sec, anti-phospho-Y783 PLCγ1 immunoblot, read-out: PLC-γ Inhibition IC50
How it was run: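 Human Jurkat T cells (4 million per tube) were pretreated with compound for 2 hours at 37° C. They were then stimulated with CD3/CD28 Dynabeads (1 bead per cell) for 100 sec and lysed. Lysates were resolved by SDS-PAGE and immunoblotted for phospho-PLCγ1, with HRP secondary antibody and ECL detection.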

Row | SMILES | IC50 [1] [µM] | IC50 ([2]; Homo sapiens, Jurkat, 2 h) [µM] | IC50 ([2]; Human Jurkat T cells) [µM]
1 | C=CC(=O)Nc1cc(-c2cnc3[nH]cc(-c4cccc(F)c4)c3c2)cc(C(F)(F)F)c1 [Example 63, N-(3-(3-(3-fluoro-phenyl)-1H-pyrrolo[2,3-b]-pyridin-5-yl)-5-(trifluoro-methyl)phenyl)-acrylamide] | ≤ 1 | 1 to 5 | –
2 | C=CC(=O)Nc1cccc(-c2cnc3[nH]cc(-c4cncc(C#N)c4)c3c2)c1 [Example 8, N-(3-(3-(5-cyano-pyridin-3-yl)-1H-pyrrolo[2,3-b]-pyridin-5-yl)-phenyl)acrylamide] | ≤ 0.1 | 1 to 5 | –
3 | C=CC(=O)Nc1cncc(-c2cnc3[nH]cc(-c4cccc(C(F)(F)F)c4)c3c2)c1 [Example 62, N-(5-(3-(3-(trifluoromethyl)-phenyl)-1H-pyrrolo[2,3-b]-pyridin-5-yl)-pyridin-3-yl)-acrylamide] | ≤ 1 | > 5 | –
4 | C=CC(=O)Nc1cc(-c2cnc3[nH]cc(-c4cncnc4)c3c2)cc(C(F)(F)F)c1 [Example 67, N-(3-(3-(pyrimidin-5-yl)-1H-pyrrolo-[2,3-b]pyridin-5-yl)-5-(trifluoro-methyl)phenyl)-acrylamide] | ≤ 0.1 | ≤ 1 | –

Now from value to compound:

Row | IC50 [1] [µM] | IC50 ([2]; Homo sapiens, Jurkat, 2 h) [µM] | IC50 ([2]; Human Jurkat T cells) [µM] | SMILES
5 | ≤ 0.1 | ≤ 1 | – | Cc1cc2c(-c3c[nH]c4ncc(-c5cc(NC(=O)/C=C/CN(C)C)cc(C(F)(F)F)c5)cc34)ccnc2[nH]1 [Example 14, (E)-4-(dimethyl-amino)-N-(3-(2′-methyl-1H,1′H-[3,4′-bipyrrolo-[2,3-b]pyridin]-5-yl)-5-(trifluoro-methyl)phenyl)-but-2-enamide]
6 | ≤ 0.1 | ≤ 1 | – | Cc1cc(-c2c[nH]c3ncc(-c4cccc(NC(=O)/C=C/CN(C)C)c4)cc23)ccn1 [Example 48, (E)-4-(dimethyl-amino)-N-(3-(3-(2-methylpyridin-4-yl)-1H-pyrrolo-[2,3-b]pyridin-5-yl)phenyl)but-2-enamide]
7 | ≤ 0.1 | ≤ 1 | – | C=CC(=O)Nc1cc(-c2cnc3[nH]cc(-c4ccnc(C)c4)c3c2)cc(C(F)(F)F)c1 [Example 23, N-(3-(3-(2-methyl-pyridin-4-yl)-1H-pyrrolo[2,3-b]-pyridin-5-yl)-5-(trifluoromethyl)-phenyl)acrylamide]
8 | ≤ 0.1 | – | ≤ 1 | CN(C)C/C=C/C(=O)Nc1cncc(-c2cnc3[nH]cc(-c4ccnc(C#N)c4)c3c2)c1 [Example 36, (E)-N-(5-(3-(2-cyanopyridin-4-yl)-1H-pyrrolo-[2,3-b]pyridin-5-yl)pyridin-3-yl)-4-(dimethyl-amino)but-2-enamide]
